In ChEMBL document CHEMBL4715865, “Antimyeloma Potential of Caffeic Acid Phenethyl Ester and Its Analogues through Sp1 Mediated Downregulation of IKZF1-IRF4-MYC Axis” (J Nat Prod, 2020):
pIC50: −log10 of the molar value. Activity calls are given as the source filed them. The rule behind the calls is not given here.

Key:
KMM-1 [1] = experiment: (§1) Growth inhibition of human KMM-1 cells at 10 uM after 48 hrs by PrestoBlue cell viability assay relative to control; type: functional
JJN-3 [2] = experiment: Growth inhibition of human JJN-3 cells after 48 hrs by PrestoBlue cell viability assay; type: functional, cell-based; settings: JJN-3, 48 h
JJN-3 [3] = experiment: Down regulation of SP1 protein expression in human JJN-3 cells at 25 uM after 48 hrs by immunoblotting analysis; type: functional, cell-based
KMM-1 [4] = experiment: Down regulation of cyclin D3 expression in human KMM-1 cells after 48 hrs by immunoblotting analysis; type: functional, cell-based; settings: dose 5-50 µM
[5] = Induction of apoptosis in human KMM-1 cells assessed as necrotic cells at 10 uM after 72 hrs by Annexin V/PropidiumIodide staining based flow cytometric analysis (reference value: 8 +/-1%); type: functional
[6] = Induction of apoptosis in human KMM-1 cells assessed as late apoptotic cells at 25 uM after 72 hrs by Annexin V/PropidiumIodide staining based flow cytometric analysis (reference value: 4 +/- 0.5%); type: functional
[7] = Growth inhibition of human KMM-1 cells at 50 uM after 48 hrs by PrestoBlue cell viability assay relative to control; type: functional; settings: read-out: GI
[8] = Induction of apoptosis in human KMM-1 cells assessed as necrotic cells at 25 uM after 72 hrs by Annexin V/PropidiumIodide staining based flow cytometric analysis (reference value: 8 +/-1%); type: functional
JJN-3 [9] = experiment: Down regulation of IKZF1 protein expression in human JJN-3 cells at 50 uM after 48 hrs by immunoblotting analysis; type: functional, cell-based
[10] = Growth inhibition of human KMM-1 cells after 48 hrs by PrestoBlue cell viability assay; type: functional, cell-based; settings: KMM-1, 48 h
MM.1R [11] = experiment: Induction of apoptosis in human MM1.R cells assessed as increase in cleaved caspace-8 protein expression at 5 to 25 uM after 48 hrs by immunoblotting analysis; type: functional, cell-based; settings: dose 5-25 µM
KMM-1 [12] = experiment: Growth inhibition of human KMM-1 cells at 1 to 100 uM after 72 hrs by PrestoBlue cell viability assay; type: functional, cell-based; settings: dose 1-100 µM
[13] = as §1; type: functional; settings: read-out: GI
MM.1R [14] = experiment: Down regulation of SP1 protein expression in human MM1.R cells at 25 uM after 48 hrs by immunoblotting analysis; type: functional, cell-based
[15] = Growth inhibition of human KMM-1 cells at 25 uM after 48 hrs by PrestoBlue cell viability assay relative to control; type: functional; settings: read-out: GI
[16] = Induction of apoptosis in human KMM-1 cells assessed as viable cells at 25 uM after 72 hrs by Annexin V/PropidiumIodide staining based flow cytometric analysis (reference value: 87 +/- 1%); type: functional; settings: read-out: Activity
[17] = Induction of apoptosis in human KMM-1 cells assessed as viable cells at 10 uM after 72 hrs by Annexin V/PropidiumIodide staining based flow cytometric analysis (reference value: 87 +/- 1%); type: functional; settings: read-out: Activity
B cell [18] = experiment: Cytotoxicity against human naive B cells assessed as reduction in cll viability at 25 to 50 uM after 48 hrs by PrestoBlue cell viability assay; type: cell-based; settings: dose 25-50 µM
KMM-1 [19] = experiment: Down regulation of Bob-1 protein expression in human KMM-1 cells at 50 uM after 48 hrs by immunoblotting analysis; type: functional, cell-based
[20] = Induction of apoptosis in human KMM-1 cells assessed as early apoptotic cells at 10 uM after 72 hrs by Annexin V/PropidiumIodide staining based flow cytometric analysis (reference value: 1 +/- 0.4%); type: functional
[21] = Down regulation of IRF4 protein expression in human KMM-1 cells at 50 uM incubated for 48 hrs by 48 hrs by immunoblotting analysis relative to control; type: functional
KMM-1 [22] = experiment: Down regulation of OCT2 protein expression in human KMM-1 cells at 50 uM after 48 hrs by immunoblotting analysis; type: functional, cell-based
[23] = Growth inhibition of human MM1.R cells after 48 hrs by PrestoBlue cell viability assay; type: functional; settings: MM.1R
[24] = Induction of apoptosis in human KMM-1 cells assessed as apoptotic cells at 10 uM after 72 hrs by Annexin V/PropidiumIodide staining based flow cytometric analysis relative to control; type: functional
MM.1R [25] = experiment: Induction of apoptosis in human MM1.R cells at 10 uM after 48 hrs by Annexin V/Propidium Iodide flow cytometric analysis; type: functional, cell-based
[26] = Induction of apoptosis in human KMM-1 cells assessed as increase in cleaved caspace-3 expression at 50 uM after 48 hrs by immunoblotting analysis; type: functional
[27] = Induction of apoptosis in human KMM-1 cells assessed as late apoptotic cells at 10 uM after 72 hrs by Annexin V/PropidiumIodide staining based flow cytometric analysis (reference value: 4 +/- 0.5%); type: functional
KMM-1 [28] = experiment: Down regulation of IRF4 mRNA expression in human KMM-1 cells at 50 uM incubated for 48 hrs by 48 hrs by RT-PCR analysis; type: functional, cell-based
[29] = Induction of apoptosis in human KMM-1 cells assessed as early apoptotic cells at 25 uM after 72 hrs by Annexin V/PropidiumIodide staining based flow cytometric analysis (reference value: 1 +/- 0.4%); type: functional
JJN-3 [30] = experiment: Down regulation of IRF4 protein expression in human JJN-3 cells at 50 uM after 48 hrs by immunoblotting analysis; type: functional, cell-based
[31] = Cytotoxicity against human Mononuclear cells assessed as reduction in cll viability at 25 to 50 uM after 48 hrs by PrestoBlue cell viability assay; type: cell-based; settings: mononuclear cell line, dose 25-50 µM
[32] = Induction of apoptosis in human MM1.R cells assessed as apoptotic cells at 10 uM after 72 hrs by Annexin V/PropidiumIodide staining based flow cytometric analysis relative to control; type: functional, MM.1R
B cell [33] = experiment: Cytotoxicity against human naive B cells assessed as reduction in cll viability at 10 uM after 48 hrs by PrestoBlue cell viability assay; type: cell-based
[34] = Growth inhibition of human KMM-1 cells at 10 to 100 uM after 72 hrs by PrestoBlue cell viability assay relative to control; type: functional; settings: dose 10-100 µM
MM.1R [35] = experiment: Down regulation of IKZF3 protein expression in human MM1.R cells at 10 to 50 uM after 48 hrs by immunoblotting analysis; type: functional, cell-based; settings: dose 10-50 µM
MM.1R [36] = experiment: Down regulation of IRF4 protein expression in human MM1.R cells at 10 to 50 uM after 48 hrs by immunoblotting analysis; type: functional, cell-based; settings: dose 10-50 µM
JJN-3 [37] = experiment: Down regulation of IKZF1 protein expression in human JJN-3 cells at 10 to 50 uM after 48 hrs by immunoblotting analysis; type: functional, cell-based; settings: dose 10-50 µM
[38] = Cytotoxicity against human Mononuclear cells assessed as reduction in cll viability at 10 uM after 48 hrs by PrestoBlue cell viability assay; type: cell-based; settings: mononuclear cell line
MM.1R [39] = experiment: Down regulation of IKZF1 protein expression in human MM1.R cells at 10 to 50 uM after 48 hrs by immunoblotting analysis; type: functional, cell-based; settings: dose 10-50 µM
[40] = Growth inhibition of human MM1.R cells at 100 uM after 48 hrs by PrestoBlue cell viability assay relative to control; type: functional; settings: MM.1R, read-out: GI
JJN-3 [41] = experiment: Down regulation of IRF4 protein expression in human JJN-3 cells at 10 to 50 uM after 48 hrs by immunoblotting analysis; type: functional, cell-based; settings: dose 10-50 µM
KMM-1 [42] = experiment: Growth inhibition of human KMM-1 cells assessed as induction morphological changes at 25 to 50 uM after 48 hrs by phase contrast microscopic method; type: functional, cell-based; settings: dose 25-50 µM
A549 = experiment: Cytotoxicity against human A549 cells assessed as reduction in cell viability after 48 hrs by MTT assay; type: functional, cell-based; settings: A549, 48 h
MM.1R [43] = experiment: Down regulation of SP1 protein expression in human MM1.R cells at 10 uM after 48 hrs by immunoblotting analysis; type: functional, cell-based
KMM-1 [44] = experiment: Growth inhibition of human KMM-1 cells at 1 to 10 uM after 48 hrs by PrestoBlue cell viability assay; type: functional, cell-based; settings: dose 1-10 µM
JJN-3 [45] = experiment: Down regulation of SP1 protein expression in human JJN-3 cells at 10 uM after 48 hrs by immunoblotting analysis; type: functional, cell-based
IMR-32 = experiment: Cytotoxicity against human IMR-32 cells assessed as reduction in cell viability after 48 hrs by MTT assay; type: functional, cell-based; settings: IMR-32, 48 h
[46] = Potency index, ratio of lenalidomide IC50 to test compound IC50 for growth inhibition of human KMM-1 cells; type: functional
MM.1R [47] = experiment: Down regulation of MYC protein expression in human MM1.R cells at 10 uM after 48 hrs by immunoblotting analysis; type: functional, cell-based
MM.1R [48] = experiment: Induction of apoptosis in human MM1.R cells assessed as increase in cleaved caspace-8 protein expression at 10 uM after 48 hrs by immunoblotting analysis; type: functional, cell-based
KMM-1 [49] = experiment: Down regulation of cyclin D3 expression in human KMM-1 cells at 5 to 50 uM after 48 hrs by immunoblotting analysis; type: functional, cell-based; settings: dose 5-50 µM

SMILES: COc1cc(/C=C/C(=O)OCCc2ccccc2)ccc1O
- growth inhibition (GI) (KMM-1 [1]): inactive

SMILES: O=C(/C=C/c1ccc(O)c(O)c1)OCCCc1ccccc1
- pIC50 (JJN-3 [2]): 5.17
- Activity (JJN-3 [3]): Active
- Activity (KMM-1 [4]): Dose-dependent effect
- Activity [5]: 27%
- Activity [6]: 17.2%
- inhibition of growth at 50 µM [7]: 80%
- Activity [8]: 43%
- Activity (JJN-3 [9]): Active
- pIC50 [10]: 4.92
- Activity (MM.1R [11]): Active
- growth inhibition (GI) (KMM-1 [12]): Active
- inhibition of growth at 10 µM [13]: 28%
- Activity (MM.1R [14]): Active
- inhibition of growth at 25 µM [15]: 58.3%
- viability at 25 µM [16]: 32%
- viability at 10 µM [17]: 55%
- Activity (B cell [18]): Non-Toxic
- Activity (KMM-1 [19]): Active
- Activity [20]: 4%
- Activity [21]: 62%
- Activity (KMM-1 [22]): Active
- pIC50 [23]: 5.31
- Activity [24]: 40.4%
- Activity (MM.1R [25]): Active
- fold change (FC) [26]: 2.9
- Activity [27]: 14%
- Activity (KMM-1 [28]): Active
- Activity [29]: 7%
- Activity (JJN-3 [30]): Active
- Activity [31]: Non-Toxic
- Activity [32]: 30%

SMILES: Nc1cccc2c1CN(C1CCC(=O)NC1=O)C2=O (stereo unspecified) [LENALIDOMIDE]
- Activity (B cell [33]): Non-Toxic
- growth inhibition (GI) [34]: >25%
- Activity [5]: 12%
- Activity (MM.1R [35]): inactive
- inhibition of growth at 10 µM [13]: 7.5%
- Activity (MM.1R [36]): inactive
- Activity (JJN-3 [37]): Active
- viability at 10 µM [17]: 78%
- Activity [38]: Non-Toxic
- Activity [20]: 4%
- Activity (MM.1R [39]): Active
- Activity [24]: 17.4%
- inhibition of growth at 100 µM [40]: 47%
- Activity [27]: 6%
- Activity (JJN-3 [41]): Active
- Activity [32]: 46%

SMILES: O=C(/C=C/c1ccc(O)c(O)c1)OCCc1ccccc1 [CAFFEIC ACID PHENETHYL ESTER]
- pIC50 (JJN-3 [2]): 4.52
- growth inhibition (GI) (KMM-1 [42]): Active
- pIC50 (A549): 4.10
- Activity [5]: 17%
- Activity [6]: 15%
- inhibition of growth at 50 µM [7]: 59%
- Activity [8]: 31%
- pIC50 [10]: 4.43
- Activity (MM.1R [11]): Active
- growth inhibition (GI) (KMM-1 [12]): Active
- Activity (MM.1R [43]): Active
- growth inhibition (GI) (KMM-1 [44]): Active
- inhibition of growth at 25 µM [15]: 38.7%
- viability at 25 µM [16]: 51%
- viability at 10 µM [17]: 71%
- Activity (B cell [18]): Non-Toxic
- Activity [20]: 3%
- Activity [21]: 26%
- pIC50 [23]: 4.75
- Activity (JJN-3 [45]): Active
- Activity [24]: 25.8%
- Activity [27]: 9%
- Activity (KMM-1 [28]): Active
- Activity [29]: 4%
- Activity [31]: Non-Toxic
- pIC50 (IMR-32): 5.30
- Activity [32]: 41%

SMILES: Oc1ccc(/C=C/COCCCc2ccccc2)cc1O
- pIC50 (JJN-3 [2]): 4.85
- pIC50 [10]: 5.18
- Activity (MM.1R [43]): inactive
- Ratio IC50 [46]: 6.5
- Activity (MM.1R [47]): inactive
- pIC50 [23]: 5.70
- Activity (MM.1R [48]): Active

SMILES: O=C(/C=C/c1cccc(O)c1O)OCCCc1ccccc1
- growth inhibition (GI) (KMM-1 [1]): inactive

SMILES: COc1cc(/C=C/C(=O)OCCCc2ccccc2)ccc1O
- growth inhibition (GI) (KMM-1 [1]): inactive

SMILES: O=C(/C=C/c1ccc(O)c(O)c1)NCCc1ccccc1
- growth inhibition (GI) (KMM-1 [44]): Active
- Activity (KMM-1 [49]): inactive
